Test results as given in patent US10201587B2, “Methods of inhibiting and treating biofilms using glycopeptide antibiotics” (MELINTA THERAPEUTICS, INC., priority 2008, dated 2019).

Assays:
[1] = test system: stationary-phase MRSA ATCC 43300; assay: Ultrastructure by transmission electron microscopy of thin sections; assay type: cell-based, S. aureus; details: 3 hours in nutrient-depleted CAMHB; 1 μg/mL oritavancin, 16 μg/mL vancomycin
Description: Bacteria were fixed in 2.5% glutaraldehyde to cross-link proteins and help preserve morphological structure. Prior to embedding, the samples were treated with fresh 2.5% (vol/vol) glutaraldehyde in HEPES buffer (pH, 6.8) for 2 hours. The samples were then post-fixed in 2.0% (wt/vol) osmium tetroxide, followed by en bloc-staining with 2.0% (wt/vol) uranyl acetate, as a heavy-metal stain, to add contrast to the cells. The cells were then dehydrated through a series of ethanol washes then embedded in LR White resin. Once polymerized by curing, each culture sample was thin sectioned and stained by uranyl acetate and lead citrate so as to view the internal cellular constituents and the juxtaposition of cell envelope layers such as the plasma membrane and cell wall. Transmission electron microscopy was used to view the thin sections using a Philips CM10 under standard operating conditions at 100 kV.

[2] = test system: S. aureus ATCC 29213; assay: Membrane depolarization, DiSC3(5) fluorescence; assay type: cell-based; details: 30 min
Description: Bacteria were grown overnight in CAMHB and sub-cultured the following day in CAMHB to exponential phase (OD600≈0.25). Exponential- and stationary-phase cells were washed in membrane assay buffer with or without 5 mM glucose, respectively, and resuspended at an OD600=0.25. DiSC3(5) was added to a final concentration of 1.5 μM and the solution was incubated in the dark at ambient temperature for 30 minutes to allow loading of the fluorescent dye into cell membranes. After the loading period, cells were diluted 50-fold (OD600=0.005) in depolarization buffer with or without glucose for exponential- or stationary-phase cells, respectively. Assays were initiated by the addition of antimicrobial agents over a range of concentrations and were monitored in real time by fluorescence spectroscopy (λex=612, λem=665) for a period of 30 minutes. […] Experiments were repeated three times and produced similar results; results from one assay are presented.

[3] = test system: Staphylococcus epidermidis ATCC 35984; assay: Prevention of in vitro biofilm formation on coated silicone tubing; assay type: cell-based; details: silicone tubing incubated overnight in 20 mg/ml solution; inoculum 10^5 or 10^7 CFU/ml
Description: Silicone tubing (0.040″ inner-diameter by 0.085″ outer-diameter by 0.023″ wall thickness; VWR International) was cut into 1 cm lengths then cut longitudinally in half. Cut tubing pieces were sterilized overnight in 99% ethanol. Tubing pieces were rinsed in 2 ml of sterile water then incubated overnight at room temperature in 20 mg/ml of either oritavancin or chloroeremomycin solution in water. Control tubing pieces were incubated in water as described. The following day, tubing pieces were rinsed in 2 ml of water then incubated with Staphylococcus epidermis ATCC 35984 at an inoculum density of either 10^5 CFU/ml or 10^7 CFU/ml in tryptic soy broth at 37° C. with rotation at 150 rpm in a rotational incubator. Tubing pieces were rinsed in 2 ml of sterile physiologic saline and bacteria in the biofilm formed on the silicone tubing were recovered by sonicating the tubing pieces in 1 ml of sterile physiologic saline in a sonicating water bath (VWR Aquasonic model 550D). Recovered bacteria were enumerated by serial dilution plating.

[4] = test system: S. aureus strains (MSSA ATCC 29213, MRSA ATCC 33591, VRSA VRS5); assay: MBEC system in vitro biofilm, statements over all three strains; assay type: cell-based; details: 24-hour biofilm
Description: The commercially-available MBEC™ system (Innovotech; Edmonton, AB, Canada) was used following the manufacturer's protocol (17) to establish in vitro biofilms of S. aureus and to determine the minimal biofilm eradication concentration (MBEC) of oritavancin and comparator antimicrobial agents. The MBEC represents the concentration of antimicrobial agent required to sterilize the biofilm after 24 hours of exposure. The MBEC™ system also allows for the determination of the minimal inhibitory concentration (MIC) of the test agent against planktonic cells under the conditions of the biofilm assay.
150 μL of bacterial inocula at 10^7 CFU/mL in tryptic soy broth was aliquoted into each well of an MBEC plate. Biofilms were established for 24 hours in a rotary incubator at 37° C. and 150 rpm. For experiments involving 72-hour biofilms, peg lids were transferred each day to 96-well plates containing 150 μL/well of fresh tryptic soy broth and incubated another 24 hours. […] The recovery plates were sonicated for 5 minutes in an ultrasonic sonicating bath (VWR Aquasonic model 550D) at the maximum setting then incubated for 24 hours and the MBECs recorded. MBECs were determined from at least three independent experiments; results represent the ranges of MBECs obtained. […]

[5] = test system: S. aureus ATCC 29213; assay: Short duration (2 h) time-kill in membrane assay buffer; assay type: cell-based
Description: Short duration (2 h) time-kill studies were performed in membrane assay buffer (see below) to characterize the killing of S. aureus ATCC 29213 under conditions used in the membrane depolarization and permeability assays. Exponential- and stationary-phase S. aureus ATCC 29213 cells were diluted to an OD600=0.005 (approx 10^6 CFU/mL) in membrane assay buffer (10 mM HEPES-C1, pH 7.5, 50 μg/mL CaCl2) with or without 5 mM glucose, respectively. Experiments were initiated by the addition of antimicrobial agents at the indicated concentrations and bacteria were enumerated by serial-dilution plating.

## CN[C@H](CC(C)C)C(=O)N[C@H]1C(=O)N[C@@H](CC(N)=O)C(=O)N[C@H]2C(=O)N[C@H]3C(=O)N[C@H](C(=O)N[C@H](C(=O)O)c4cc(O)cc(O)c4-c4cc3ccc4O)[C@H](O[C@H]3C[C@](C)(N)[C@@H](O)[C@H](C)O3)c3ccc(c(Cl)c3)Oc3cc2cc(c3O[C@@H]2O[C@H](CO)[C@@H](O)[C@H](O)[C@H]2O[C@H]2C[C@](C)(NCc3ccc(-c4ccc(Cl)cc4)cc3)[C@@H](O)[C@H](C)O2)Oc2ccc(cc2Cl)[C@H]1O [Oritavancin, N-(4-(4-chlorophenyl)benzyl)A82846B]
[1]
  septal mid-line staining: conspicuously absent
[2]; exponential-phase cells
  dissipation of membrane potential (DiSC3(5) fluorescence): occurred in a concentration-dependent manner
[2]; stationary-phase cells
  dissipation of membrane potential (DiSC3(5) fluorescence): occurred in a concentration-dependent manner
[3]
  activity on a coated surface against biofilm formation: significant activity
[4]; all three S. aureus strains
  MBEC: 2 to 8 µg/mL
[4]; in each experiment
  MBEC relative to respective planktonic MIC: within one doubling dilution
[5]; exponential-phase cells, within 5 minutes, 16 μg/mL
  reduction in CFU: 4 log
[5]; stationary-phase cells, within the 2-hour time period, oritavancin at fCmax 800, daptomycin at fCmax
  reduction in CFU: approximately 1 log
